Data as given in ChEMBL document CHEMBL4428137, “Development of a Potent and Selective HDAC8 Inhibitor” (ACS Med Chem Lett, 2016).
Calls of active or inactive are those of the source. No cut-off for these calls is given here.

What was measured:
[1] = molecular target: T1, Histone deacetylase 8 (Homo sapiens, UniProt Q9BY41); experiment: (§1) Inhibition of HDAC8 (unknown origin) using fluorophore-conjugated substrate by fluorescence assay
T1 sequence (Q9BY41 whole entry): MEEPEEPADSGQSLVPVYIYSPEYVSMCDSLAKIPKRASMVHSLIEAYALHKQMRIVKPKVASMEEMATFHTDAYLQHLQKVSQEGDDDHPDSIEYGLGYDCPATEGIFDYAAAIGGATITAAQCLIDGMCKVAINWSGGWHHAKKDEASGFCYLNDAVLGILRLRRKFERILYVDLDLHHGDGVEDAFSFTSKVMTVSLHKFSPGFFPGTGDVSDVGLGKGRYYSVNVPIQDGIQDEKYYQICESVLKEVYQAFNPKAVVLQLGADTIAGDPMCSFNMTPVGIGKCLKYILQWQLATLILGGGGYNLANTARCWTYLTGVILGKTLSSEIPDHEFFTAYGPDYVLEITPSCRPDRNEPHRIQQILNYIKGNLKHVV

[2] = molecular target: T2, Histone deacetylase 8 (Homo sapiens) (UniProt Q9BY41); experiment: as §1
T2 sequence (whole entry): T1 sequence (Q9BY41 whole entry)

[3] = molecular target: Histone deacetylase 3 (Homo sapiens, UniProt O15379); experiment: Inhibition of recombinant full length human C-terminal His-tagged HDAC3 expressed in sf9 cells co-expressing human N-terminal GST-tagged NCOR2 (395 to 489 residues) using fluorophore-conjugated substrate by fluorescence assay
[4] = molecular target: Histone deacetylase 2 (Homo sapiens, UniProt Q92769); experiment: Inhibition of recombinant full length human HDAC2 expressed in sf9 cells using fluorophore-conjugated substrate by fluorescence assay
[5] = molecular target: Histone deacetylase 9 (Homo sapiens, UniProt Q9UKV0); experiment: Inhibition of HDAC9 (unknown origin)
[6] = molecular target: T3, Protein deacetylase HDAC6 (Homo sapiens, UniProt Q9UBN7); experiment: (§2) Inhibition of recombinant full length human HDAC6 expressed in sf9 cells using fluorophore-conjugated substrate by fluorescence assay
T3 sequence (Q9UBN7 whole entry): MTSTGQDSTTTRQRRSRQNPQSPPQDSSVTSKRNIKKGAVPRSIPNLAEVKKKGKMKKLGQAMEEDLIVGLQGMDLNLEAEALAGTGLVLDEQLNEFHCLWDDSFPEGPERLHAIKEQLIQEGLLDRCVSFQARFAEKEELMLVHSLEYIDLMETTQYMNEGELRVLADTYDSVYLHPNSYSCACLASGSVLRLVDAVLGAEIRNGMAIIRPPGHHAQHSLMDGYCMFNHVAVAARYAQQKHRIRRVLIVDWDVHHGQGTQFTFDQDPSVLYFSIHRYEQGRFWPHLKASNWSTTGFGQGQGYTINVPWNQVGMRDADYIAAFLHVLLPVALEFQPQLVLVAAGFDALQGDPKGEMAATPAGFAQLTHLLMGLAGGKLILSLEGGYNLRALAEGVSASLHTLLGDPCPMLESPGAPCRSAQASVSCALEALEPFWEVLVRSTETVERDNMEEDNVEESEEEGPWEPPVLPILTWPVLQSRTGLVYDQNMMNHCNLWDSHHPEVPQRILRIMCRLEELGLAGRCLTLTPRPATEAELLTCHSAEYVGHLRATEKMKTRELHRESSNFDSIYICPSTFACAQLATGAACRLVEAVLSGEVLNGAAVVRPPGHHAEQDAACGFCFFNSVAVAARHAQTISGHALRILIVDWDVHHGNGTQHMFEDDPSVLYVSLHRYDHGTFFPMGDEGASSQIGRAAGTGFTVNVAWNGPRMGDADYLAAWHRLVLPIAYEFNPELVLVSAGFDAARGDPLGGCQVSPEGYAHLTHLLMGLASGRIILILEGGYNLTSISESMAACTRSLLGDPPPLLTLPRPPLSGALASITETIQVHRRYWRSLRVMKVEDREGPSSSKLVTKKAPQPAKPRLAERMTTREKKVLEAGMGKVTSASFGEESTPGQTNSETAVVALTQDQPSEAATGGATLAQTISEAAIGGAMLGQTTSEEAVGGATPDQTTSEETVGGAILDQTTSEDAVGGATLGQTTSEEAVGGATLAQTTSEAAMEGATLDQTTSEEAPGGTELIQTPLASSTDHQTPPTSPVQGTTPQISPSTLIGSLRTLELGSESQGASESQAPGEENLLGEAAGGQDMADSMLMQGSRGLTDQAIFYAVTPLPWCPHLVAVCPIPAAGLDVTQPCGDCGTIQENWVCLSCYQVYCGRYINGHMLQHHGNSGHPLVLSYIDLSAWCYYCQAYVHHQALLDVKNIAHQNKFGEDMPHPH

[7] = molecular target: Histone deacetylase 4 (Homo sapiens, UniProt P56524); experiment: Inhibition of HDAC4 (unknown origin)
[8] = molecular target: Histone deacetylase 5 (Homo sapiens, UniProt Q9UQL6); experiment: Inhibition of HDAC5 (unknown origin)
[9] = molecular target: T4, Histone deacetylase 7 (Homo sapiens, UniProt Q8WUI4); experiment: (§3) Inhibition of HDAC7 (unknown origin)
T4 sequence (Q8WUI4 whole entry): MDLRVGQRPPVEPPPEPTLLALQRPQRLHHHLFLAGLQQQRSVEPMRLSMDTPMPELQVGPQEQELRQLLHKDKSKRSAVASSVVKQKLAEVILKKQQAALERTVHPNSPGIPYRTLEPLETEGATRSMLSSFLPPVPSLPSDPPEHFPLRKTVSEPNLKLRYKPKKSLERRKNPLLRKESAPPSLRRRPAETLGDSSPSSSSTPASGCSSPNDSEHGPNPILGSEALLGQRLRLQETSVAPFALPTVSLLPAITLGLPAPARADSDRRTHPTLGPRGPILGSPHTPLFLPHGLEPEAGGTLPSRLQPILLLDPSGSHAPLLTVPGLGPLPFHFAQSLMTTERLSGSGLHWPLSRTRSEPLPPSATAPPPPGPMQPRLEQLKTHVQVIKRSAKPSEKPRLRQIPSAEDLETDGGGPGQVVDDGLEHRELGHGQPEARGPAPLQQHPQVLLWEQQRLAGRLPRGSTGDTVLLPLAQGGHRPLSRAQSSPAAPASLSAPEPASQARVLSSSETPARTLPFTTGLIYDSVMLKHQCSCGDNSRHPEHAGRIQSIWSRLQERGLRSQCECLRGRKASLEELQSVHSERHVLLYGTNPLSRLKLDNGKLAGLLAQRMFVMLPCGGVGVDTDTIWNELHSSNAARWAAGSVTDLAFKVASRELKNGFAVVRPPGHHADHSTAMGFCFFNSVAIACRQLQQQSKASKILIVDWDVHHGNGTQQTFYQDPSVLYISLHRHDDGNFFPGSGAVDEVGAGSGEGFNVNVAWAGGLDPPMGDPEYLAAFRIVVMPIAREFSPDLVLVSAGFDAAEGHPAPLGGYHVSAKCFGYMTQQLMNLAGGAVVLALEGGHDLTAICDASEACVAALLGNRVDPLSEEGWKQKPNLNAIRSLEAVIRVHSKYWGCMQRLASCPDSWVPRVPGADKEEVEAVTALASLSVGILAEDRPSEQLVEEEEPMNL

[10] = molecular target: Histone deacetylase 1 (Homo sapiens, UniProt Q13547); experiment: Inhibition of recombinant full length human C-terminal FLAG/His-tagged HDAC1 expressed in baculovirus expression system using fluorophore-conjugated substrate by fluorescence assay
[11] = molecular target: T5, Protein deacetylase HDAC6 (Homo sapiens) (UniProt Q9UBN7); experiment: as §2
T5 sequence (whole entry): T3 sequence (Q9UBN7 whole entry)

[12] = molecular target: T6, Histone deacetylase 7 (Homo sapiens) (UniProt Q8WUI4); experiment: as §3
T6 sequence (whole entry): T4 sequence (Q8WUI4 whole entry)

Sequence of Histone deacetylase 3 (O15379 whole entry, the tested form may be a part): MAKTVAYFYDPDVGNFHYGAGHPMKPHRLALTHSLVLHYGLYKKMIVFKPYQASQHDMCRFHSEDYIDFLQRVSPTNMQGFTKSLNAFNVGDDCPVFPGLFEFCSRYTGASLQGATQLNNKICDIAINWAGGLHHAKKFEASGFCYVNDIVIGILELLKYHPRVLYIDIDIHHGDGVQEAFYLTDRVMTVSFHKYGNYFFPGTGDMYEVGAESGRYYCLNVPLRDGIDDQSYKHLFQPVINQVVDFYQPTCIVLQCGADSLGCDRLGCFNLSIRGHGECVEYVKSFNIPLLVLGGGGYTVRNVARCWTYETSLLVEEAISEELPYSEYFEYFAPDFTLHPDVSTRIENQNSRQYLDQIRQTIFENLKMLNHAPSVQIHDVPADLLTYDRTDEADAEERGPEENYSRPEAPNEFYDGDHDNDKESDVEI
Sequence of Histone deacetylase 4 (P56524 whole entry): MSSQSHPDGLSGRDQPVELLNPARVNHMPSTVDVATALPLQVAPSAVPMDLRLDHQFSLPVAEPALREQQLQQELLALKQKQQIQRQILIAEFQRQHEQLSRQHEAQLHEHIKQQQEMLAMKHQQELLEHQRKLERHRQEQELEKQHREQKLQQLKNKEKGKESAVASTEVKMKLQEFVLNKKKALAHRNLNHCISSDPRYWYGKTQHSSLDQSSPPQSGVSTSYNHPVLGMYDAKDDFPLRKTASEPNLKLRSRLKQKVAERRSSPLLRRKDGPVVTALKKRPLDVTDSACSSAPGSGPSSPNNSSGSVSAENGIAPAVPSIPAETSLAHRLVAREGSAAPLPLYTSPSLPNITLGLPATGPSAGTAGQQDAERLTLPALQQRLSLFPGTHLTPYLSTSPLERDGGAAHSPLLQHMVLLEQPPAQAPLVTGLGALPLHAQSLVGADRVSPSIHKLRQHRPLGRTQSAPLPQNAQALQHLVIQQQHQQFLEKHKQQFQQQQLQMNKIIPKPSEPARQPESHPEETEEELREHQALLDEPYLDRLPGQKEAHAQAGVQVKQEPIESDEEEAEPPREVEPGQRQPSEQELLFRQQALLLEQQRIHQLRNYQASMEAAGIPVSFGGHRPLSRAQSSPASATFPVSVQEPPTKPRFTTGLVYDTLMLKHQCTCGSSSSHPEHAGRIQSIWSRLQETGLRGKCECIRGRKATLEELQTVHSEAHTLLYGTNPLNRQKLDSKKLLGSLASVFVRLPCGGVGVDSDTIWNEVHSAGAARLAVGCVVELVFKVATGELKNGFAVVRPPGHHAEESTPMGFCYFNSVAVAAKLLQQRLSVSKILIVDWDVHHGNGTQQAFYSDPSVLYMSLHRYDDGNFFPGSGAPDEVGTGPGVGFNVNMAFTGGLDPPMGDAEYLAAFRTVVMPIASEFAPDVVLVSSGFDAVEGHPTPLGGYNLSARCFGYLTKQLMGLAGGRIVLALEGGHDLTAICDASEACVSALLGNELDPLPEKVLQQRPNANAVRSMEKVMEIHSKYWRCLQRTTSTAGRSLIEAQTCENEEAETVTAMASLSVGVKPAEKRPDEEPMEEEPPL
Sequence of Histone deacetylase 2 (Q92769 whole entry): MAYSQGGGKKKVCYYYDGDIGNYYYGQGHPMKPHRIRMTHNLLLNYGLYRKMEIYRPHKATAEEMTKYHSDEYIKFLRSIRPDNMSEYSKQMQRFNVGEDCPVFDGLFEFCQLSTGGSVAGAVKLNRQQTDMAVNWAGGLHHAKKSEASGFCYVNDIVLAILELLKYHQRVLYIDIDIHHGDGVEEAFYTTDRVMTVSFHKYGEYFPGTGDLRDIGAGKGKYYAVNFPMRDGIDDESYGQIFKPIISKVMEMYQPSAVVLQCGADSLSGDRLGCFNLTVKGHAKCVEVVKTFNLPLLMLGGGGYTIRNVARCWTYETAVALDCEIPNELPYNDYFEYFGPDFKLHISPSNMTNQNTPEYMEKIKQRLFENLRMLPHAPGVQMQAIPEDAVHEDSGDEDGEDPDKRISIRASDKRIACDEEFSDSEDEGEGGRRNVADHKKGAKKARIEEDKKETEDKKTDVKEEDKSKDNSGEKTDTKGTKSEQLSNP
Sequence of Histone deacetylase 9 (Q9UKV0 whole entry): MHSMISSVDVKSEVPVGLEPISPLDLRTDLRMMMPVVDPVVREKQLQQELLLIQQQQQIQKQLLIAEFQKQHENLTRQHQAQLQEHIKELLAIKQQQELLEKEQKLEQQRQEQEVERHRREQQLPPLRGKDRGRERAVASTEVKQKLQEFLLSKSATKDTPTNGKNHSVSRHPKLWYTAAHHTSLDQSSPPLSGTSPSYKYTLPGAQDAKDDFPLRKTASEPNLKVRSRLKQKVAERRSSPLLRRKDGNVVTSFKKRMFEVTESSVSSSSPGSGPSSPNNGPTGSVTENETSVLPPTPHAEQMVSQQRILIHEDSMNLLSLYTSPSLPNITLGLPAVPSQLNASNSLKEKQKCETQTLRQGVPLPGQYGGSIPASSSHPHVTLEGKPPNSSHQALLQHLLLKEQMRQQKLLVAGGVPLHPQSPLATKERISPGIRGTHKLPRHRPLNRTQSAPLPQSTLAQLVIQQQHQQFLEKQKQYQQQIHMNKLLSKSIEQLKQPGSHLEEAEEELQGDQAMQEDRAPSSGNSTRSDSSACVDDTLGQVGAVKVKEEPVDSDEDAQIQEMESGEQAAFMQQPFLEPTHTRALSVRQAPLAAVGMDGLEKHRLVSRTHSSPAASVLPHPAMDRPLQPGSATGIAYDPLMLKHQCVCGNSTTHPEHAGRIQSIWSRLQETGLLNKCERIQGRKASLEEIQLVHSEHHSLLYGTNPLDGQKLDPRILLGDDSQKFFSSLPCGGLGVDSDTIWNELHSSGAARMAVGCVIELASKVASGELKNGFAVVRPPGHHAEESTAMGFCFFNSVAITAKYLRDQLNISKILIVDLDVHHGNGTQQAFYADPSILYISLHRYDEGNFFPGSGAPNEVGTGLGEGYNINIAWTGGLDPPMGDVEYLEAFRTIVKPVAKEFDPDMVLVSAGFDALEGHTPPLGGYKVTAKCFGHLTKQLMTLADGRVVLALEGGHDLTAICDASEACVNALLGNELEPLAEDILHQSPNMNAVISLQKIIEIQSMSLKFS
Sequence of Histone deacetylase 1 (Q13547 whole entry): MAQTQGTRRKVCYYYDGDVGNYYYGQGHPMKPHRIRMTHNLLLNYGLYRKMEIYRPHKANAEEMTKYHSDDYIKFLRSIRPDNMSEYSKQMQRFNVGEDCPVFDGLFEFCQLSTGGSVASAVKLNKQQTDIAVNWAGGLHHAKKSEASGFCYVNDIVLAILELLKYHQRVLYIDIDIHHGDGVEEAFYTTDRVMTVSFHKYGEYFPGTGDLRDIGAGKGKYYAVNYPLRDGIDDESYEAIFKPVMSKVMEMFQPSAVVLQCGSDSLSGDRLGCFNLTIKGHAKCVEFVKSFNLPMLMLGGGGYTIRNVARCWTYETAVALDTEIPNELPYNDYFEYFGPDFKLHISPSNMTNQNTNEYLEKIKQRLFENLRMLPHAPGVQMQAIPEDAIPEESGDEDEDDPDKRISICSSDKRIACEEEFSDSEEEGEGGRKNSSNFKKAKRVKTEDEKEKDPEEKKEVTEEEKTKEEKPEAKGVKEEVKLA
Sequence of Histone deacetylase 5 (Q9UQL6 whole entry): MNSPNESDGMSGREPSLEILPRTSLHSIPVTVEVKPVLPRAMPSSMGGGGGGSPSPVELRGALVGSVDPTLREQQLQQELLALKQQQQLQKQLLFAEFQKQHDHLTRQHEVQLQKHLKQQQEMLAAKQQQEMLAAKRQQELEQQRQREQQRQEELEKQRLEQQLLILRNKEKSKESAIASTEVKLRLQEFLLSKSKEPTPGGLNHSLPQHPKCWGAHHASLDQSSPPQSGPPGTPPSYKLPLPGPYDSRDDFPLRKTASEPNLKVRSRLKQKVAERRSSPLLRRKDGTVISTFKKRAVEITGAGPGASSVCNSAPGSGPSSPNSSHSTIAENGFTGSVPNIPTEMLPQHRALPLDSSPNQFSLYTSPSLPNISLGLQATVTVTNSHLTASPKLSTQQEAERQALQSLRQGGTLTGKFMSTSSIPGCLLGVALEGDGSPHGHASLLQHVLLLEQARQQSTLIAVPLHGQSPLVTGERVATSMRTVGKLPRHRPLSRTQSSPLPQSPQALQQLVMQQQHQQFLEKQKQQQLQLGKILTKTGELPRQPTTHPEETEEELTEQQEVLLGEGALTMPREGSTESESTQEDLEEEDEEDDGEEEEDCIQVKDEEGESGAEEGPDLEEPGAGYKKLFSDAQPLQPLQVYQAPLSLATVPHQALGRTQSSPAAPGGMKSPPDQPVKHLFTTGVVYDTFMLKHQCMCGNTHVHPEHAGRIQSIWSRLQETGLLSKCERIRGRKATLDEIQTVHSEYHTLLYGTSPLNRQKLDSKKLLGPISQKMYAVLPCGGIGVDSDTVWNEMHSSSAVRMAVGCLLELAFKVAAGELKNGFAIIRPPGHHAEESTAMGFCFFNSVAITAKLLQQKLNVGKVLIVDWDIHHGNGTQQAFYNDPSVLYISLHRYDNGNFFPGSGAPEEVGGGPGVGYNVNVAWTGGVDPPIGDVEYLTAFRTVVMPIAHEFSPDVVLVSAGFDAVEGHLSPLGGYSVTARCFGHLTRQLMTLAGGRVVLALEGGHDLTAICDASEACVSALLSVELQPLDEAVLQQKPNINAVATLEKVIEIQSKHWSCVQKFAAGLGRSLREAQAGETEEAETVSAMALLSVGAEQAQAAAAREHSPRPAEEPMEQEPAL

SMILES: CC(C)[C@@H](C(=O)NO)n1nnc(-c2ccccc2)c1C#Cc1ccccc1
- IC50 [1]: 2300 nM

SMILES: O=C(NO)[C@H](Cc1ccccc1)n1nnc(-c2ccccc2)c1/C=C/C1CC1
- inhibition [2]: inactive

SMILES: O=C(NO)[C@H](Cc1ccccc1)n1nnc(-c2ccccc2)c1C#CC1CC1
- IC50 [3]: > 20000 nM
- IC50 [4]: > 20000 nM
- IC50 [5]: > 20000 nM
- IC50 [6]: 1200 nM
- IC50 [7]: > 20000 nM
- IC50 [8]: > 20000 nM
- IC50 [9]: > 20000 nM
- IC50 [1]: 0.8 nM
- IC50 [10]: 4300 nM

SMILES: CCc1ccc(C#Cc2c(-c3ccccc3)nnn2[C@@H](Cc2ccccc2)C(=O)NO)cc1
- IC50 [1]: 1500 nM

SMILES: CNC(=O)[C@H](Cc1ccccc1)n1nnc(-c2ccccc2)c1C#Cc1ccccc1
- inhibition [3]: inactive
- inhibition [4]: inactive
- inhibition [5]: inactive
- inhibition [11]: inactive
- inhibition [7]: inactive
- inhibition [8]: inactive
- inhibition [12]: inactive
- inhibition [2]: inactive
- inhibition [10]: inactive

SMILES: CCCCCc1c(-c2ccccc2)nnn1[C@@H](Cc1ccccc1)C(=O)NO
- IC50 [1]: 160 nM

SMILES: O=C(NO)[C@H](Cc1ccccc1)n1nnc(-c2cccc(Cl)c2)c1C#CC1CC1
- IC50 [1]: 8 nM

SMILES: O=C(NO)[C@H](Cc1ccccc1)n1nnc(-c2ccccc2)c1C#Cc1ccccc1
- IC50 [3]: > 20000 nM
- IC50 [4]: > 20000 nM
- IC50 [5]: > 20000 nM
- IC50 [6]: 3600 nM
- IC50 [7]: > 20000 nM
- IC50 [8]: > 20000 nM
- IC50 [9]: > 20000 nM
- IC50 [1]: 10 nM
- IC50 [10]: > 20000 nM

SMILES: O=C(NO)[C@H](Cc1ccccc1)n1nnc(-c2ccccc2)c1C#Cc1ccc(-c2ccccc2)cc1
- IC50 [1]: 9100 nM

SMILES: CC(C)(C)c1ccc(-c2nnn([C@@H](Cc3ccccc3)C(=O)NO)c2C#CC2CC2)cc1
- IC50 [1]: 133 nM

SMILES: O=C(NO)[C@@H](Cc1ccccc1)n1nnc(-c2ccccc2)c1C#Cc1ccccc1
- inhibition [3]: inactive
- inhibition [4]: inactive
- inhibition [5]: inactive
- inhibition [11]: inactive
- inhibition [7]: inactive
- inhibition [8]: inactive
- inhibition [12]: inactive
- inhibition [2]: inactive
- inhibition [10]: inactive

SMILES: O=C(NO)[C@H](Cc1ccccc1)n1cc(-c2ccccc2)nn1
- inhibition [3]: inactive
- inhibition [4]: inactive
- inhibition [5]: inactive
- inhibition [11]: inactive
- inhibition [7]: inactive
- inhibition [8]: inactive
- inhibition [12]: inactive
- inhibition [2]: inactive
- inhibition [10]: inactive

SMILES: COc1cc(OC)cc(-c2nnn([C@@H](Cc3ccccc3)C(=O)NO)c2C#CC2CC2)c1
- IC50 [1]: 3 nM

SMILES: O=C(O)[C@H](Cc1ccccc1)n1nnc(-c2ccccc2)c1C#Cc1ccccc1
- inhibition [3]: inactive
- inhibition [4]: inactive
- inhibition [5]: inactive
- inhibition [11]: inactive
- inhibition [7]: inactive
- inhibition [8]: inactive
- inhibition [12]: inactive
- inhibition [2]: inactive
- inhibition [10]: inactive

SMILES: O=C(NO)[C@H](Cc1c[nH]c2ccccc12)n1nnc(-c2ccccc2)c1C#CC1CC1
- IC50 [1]: 7 nM

SMILES: O=C(NO)[C@H](Cc1ccccc1)n1nnc(-c2ccccc2)c1CCC1CC1
- inhibition [2]: inactive

SMILES: COC(=O)[C@H](Cc1ccccc1)n1nnc(-c2ccccc2)c1C#Cc1ccccc1
- inhibition [3]: inactive
- inhibition [4]: inactive
- inhibition [5]: inactive
- inhibition [11]: inactive
- inhibition [7]: inactive
- inhibition [8]: inactive
- inhibition [12]: inactive
- inhibition [2]: inactive
- inhibition [10]: inactive

SMILES: CCC/C=C/c1c(-c2ccccc2)nnn1[C@@H](Cc1ccccc1)C(=O)NO
- IC50 [1]: 464 nM

SMILES: O=C(NO)[C@H](Cc1ccccc1)n1nnc(-c2ccsc2)c1C#CC1CC1
- IC50 [1]: 4 nM
